One experiment relates to HEK-mFAP cells. The experiment in a line: CellTiter-Blue cell viability assay with HEK-mFAP cells. It counts as cell-based, human.
The next experiment concerns the target T1, FAP (Mus musculus, UniProt P97321).
T1 construct: host or cells: HEK (human embryonic kidney) cells, stably transfected
T1 sequence (P97321 1-761): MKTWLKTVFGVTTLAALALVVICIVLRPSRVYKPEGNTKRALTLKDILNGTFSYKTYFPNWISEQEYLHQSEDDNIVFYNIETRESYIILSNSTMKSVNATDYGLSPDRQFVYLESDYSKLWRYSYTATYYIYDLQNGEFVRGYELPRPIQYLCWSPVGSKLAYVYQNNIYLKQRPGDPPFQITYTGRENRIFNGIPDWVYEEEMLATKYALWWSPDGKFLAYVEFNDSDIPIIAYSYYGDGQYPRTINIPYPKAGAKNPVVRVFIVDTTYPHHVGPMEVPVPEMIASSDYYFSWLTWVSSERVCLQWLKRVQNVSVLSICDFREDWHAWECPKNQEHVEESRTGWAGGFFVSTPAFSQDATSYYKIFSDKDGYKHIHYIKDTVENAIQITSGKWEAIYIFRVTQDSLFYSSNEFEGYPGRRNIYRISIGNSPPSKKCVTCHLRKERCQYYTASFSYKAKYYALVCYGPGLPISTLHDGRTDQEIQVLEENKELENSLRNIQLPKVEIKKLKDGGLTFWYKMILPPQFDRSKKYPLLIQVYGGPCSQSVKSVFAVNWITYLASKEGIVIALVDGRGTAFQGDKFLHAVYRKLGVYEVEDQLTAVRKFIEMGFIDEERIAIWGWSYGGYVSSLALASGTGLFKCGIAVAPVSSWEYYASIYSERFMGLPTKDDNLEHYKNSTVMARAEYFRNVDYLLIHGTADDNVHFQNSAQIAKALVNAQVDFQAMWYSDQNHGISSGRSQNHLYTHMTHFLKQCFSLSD
The experiment in a line: Inhibition of FAP activity on HEK-mFAP cells. Type of experiment: cell-based. The note with it: 5061DOX assay 3.

In another experiment the test system is HEK-Mock cells. Briefly: CellTiter-Blue cell viability assay with HEK-Mock cells. It counts as cell-based. The note with it: Homo sapiens, 72 h. In general terms: Alamar Blue is a resazurin reagent that responds to reducing activity.
The next experiment has as its system OVCAR-3. Briefly: CellTiter-Blue cell viability assay: OVCAR-3. It counts as cell-based. To be noted: Homo sapiens, 5061DOX assay 2, 72 hour incubation.
The next experiment has as its system MCF-7. The experiment in a line: CellTiter-Blue cell viability assay: MCF-7. Type of experiment: cell-based. The note with it: Homo sapiens, MCF7, 5061DOX assay 2, 72 hour incubation.
The next experiment deals with SK-OV-3. The experiment in a line: CellTiter-Blue cell viability assay: SK-OV-3. It counts as cell-based. The note with it: Homo sapiens, 5061DOX assay 2, 72 hour incubation.
The mark [1] stands for this setting: 5061DOX assay 2, 72 hour incubation, read-out: EC50 (prodrug alone).
The mark [2] stands for this setting: read-out: EC50 (prodrug + 25 nM FAP).
Setting [3] is: read-out: EC50 (prodrug + 100 uM 5057).

Like-named read-outs stand apart in the source and are kept apart here. A value given as a limit tells only on which side of the number the result lay.

With `COc1cccc2c1C(=O)c1c(O)c3c(c(O)c1C2=O)C[C@@](O)(C(=O)CO)C[C@@H]3OC1CC(NC(=O)[C@@H]2CCCN2C(=O)[C@@H](C)NC(=O)c2ccnc3cccc(Br)c23)C(O)C(C)O1` (some centres unmarked) [Compound 5061DOX], the concentration giving a half-maximal response (EC50) in the experiment with HEK-mFAP cells (5061DOX assay 2, 72 hour incubation, read-out: EC50 (prodrug + 100 uM 5057)) was > 100 µM; in the experiment on HEK-mFAP cells (setting [1]), > 100 µM; in the experiment with HEK-mFAP cells (Homo sapiens, 5061DOX assay 1, 72 hour incubation, read-out: EC50 (prodrug + 100 uM 5057)) it was > 100 µM; in the experiment with HEK-mFAP cells (Homo sapiens, 5061DOX assay 1, 72 hour incubation, read-out: EC50 (prodrug alone)) it was > 100 µM; in the experiment with HEK-Mock cells (5061DOX assay 1, 72 hour incubation, read-out: EC50 (prodrug + 25 nM FAP)), 0.28 µM; in the experiment with HEK-Mock cells (5061DOX assay 1, 72 hour incubation, read-out: EC50 (prodrug + 50 nM PREP)), > 100 µM. Also, the EC50 with HEK-Mock cells (5061DOX assay 1, 72 hour incubation, read-out: EC50 (prodrug + 100 uM 5057)) was > 100 µM; in the experiment with HEK-Mock cells (5061DOX assay 1, 72 hour incubation, read-out: EC50 (prodrug alone)), > 100 µM; in the experiment on HEK-Mock cells (5061DOX assay 2, 72 hour incubation, read-out: EC50 (prodrug + 25 nM FAP)), 0.25 µM; with HEK-Mock cells (setting [1]), > 100 µM; in the experiment with OVCAR-3 (setting [2]) it was 1.5 µM; in the experiment on OVCAR-3 (setting [3]) it was > 100 µM. Besides, the concentration giving a half-maximal response (EC50) was > 100 µM in the experiment with OVCAR-3 (read-out: EC50 (prodrug alone)); > 100 µM in the experiment on MCF-7 (setting [2]); > 100 µM in the experiment with MCF-7 (setting [3]); > 100 µM with MCF-7 (read-out: EC50 (prodrug alone)); 0.9 µM with SK-OV-3 (setting [2]); > 100 µM in the experiment with SK-OV-3 (setting [3]). The EC50 with SK-OV-3 (read-out: EC50 (prodrug alone)) is > 100 µM. For the same compound, the IC50 on FAP is > 10 µM.

As usually defined, the EC50 is the midpoint of the concentration-response curve. For orientation: IC50 means the concentration needed to halve the response being measured.
